Laboratory results published in patent US11981686B2, “Urea compound having substituent” (DAIICHI SANKYO COMPANY, LIMITED, priority 2019, dated 2024).

These compounds were tested against SIRT6 enzyme (Homo sapiens, UniProt Q8N6T7) (assay: Measurement of deacetylation activity (SIRT6, AlphaLISA, H3K9(Ac) peptide)). Settings: SIRT6 25 ng/mL, H3K9(Ac) biotin peptide 2 nM, NAD 10 μM, room temperature 30 minutes, duplicate.
Format: biochemical
Description: The reaction was performed in duplicate using a white 384-well plate (3824, Corning or 6008350, PerkinElmer) at a final reaction liquid volume of 20.1 μL. As a control for calculating the enzyme activity, the enzyme-added (DMSO (+)) and enzyme-free (DMSO (−)) wells were set at n=8. Test substances (examples of final concentrations: 0.046, 0.14, 0.41, 1.2, 3.7, 11, 33, and 100 μM) at a concentration of 100 times or 0.1 μL of DMSO was dispensed into the plate and 5 μL of SIRT6 enzyme (prepared by Daiichi Sankyo RD Novare Co., Ltd., final concentration: 25 ng/mL) diluted with an assay buffer (10 mM Tris-HCl pH of 8.0, 0.1% BSA, 0.01% Tween 20, 1 mM DTT, 12.5% Glycerol) was added thereto. The enzymatic reaction was started by adding 5 μL of a mixed solution [Lys(Ac)9]-Histone H3 (1-21)-NH2, H3K9 (Ac), biotin-labeled, amide (AnaSpec, AS-64190, final concentration: 2 nM) and β-nicotinamide adenine dinucleotide (Sigma-Aldrich, N8285-15VL, final concentration: 10 μM), and the reaction was performed at room temperature for 30 minutes. 10 μL of a mixed solution of nicotinamide (Sigma-Aldrich, 72340-100G, final concentration: 100 mM) prepared with AlphaLISA Epigenetics Buffer (PerkinElmer, AL008C), AlphaLISA Anti-unmodified Histone H3 Lysine 9/Lysine 27 (H3K9/K27) Acceptor Beads (PerkinElmer, AL138, final concentration: 10 μg/mL), and AlphaScreen Streptavidin Donor beads (PerkinElmer, 6760002, final concentration: 5 μg/mL) was added thereto, the reaction was performed at room temperature for 60 minutes and then stopped, and acetylation was detected. The emission intensity was measured by EnVision (PerkinElmer).
The relative enzyme activity (%) of the test substance was calculated by the following equation. Relative enzyme activity (%)=[(emission intensity of test substance-added well−emission intensity of DMSO (−) well)/(emission intensity of DMSO (+) well−emission intensity of DMSO (−) well)]×100
The EC150 (the concentration of the compound showing a relative enzyme activity of 150%) of the test substance was calculated based on Sigmoidal dose-response (variable slope) of GraphPad Prism (GraphPad Software) using the value of the relative enzyme activity (%) at each concentration, and the results are listed in Tables 1-1 to 1-5.

Sequence of SIRT6 enzyme (Q8N6T7 whole entry, species assumed): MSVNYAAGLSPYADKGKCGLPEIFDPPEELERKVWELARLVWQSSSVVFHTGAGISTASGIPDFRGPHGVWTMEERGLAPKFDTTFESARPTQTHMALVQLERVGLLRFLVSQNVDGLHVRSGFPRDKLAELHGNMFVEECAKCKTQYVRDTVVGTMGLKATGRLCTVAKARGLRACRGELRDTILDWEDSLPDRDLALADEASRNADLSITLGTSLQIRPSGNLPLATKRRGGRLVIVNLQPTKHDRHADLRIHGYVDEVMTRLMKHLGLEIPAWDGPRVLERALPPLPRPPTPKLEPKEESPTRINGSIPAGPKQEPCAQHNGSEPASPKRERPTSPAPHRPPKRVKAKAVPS

| Structure (SMILES) | EC150 (the concentration of the compound showing a relative enzyme activity of 150%) |
| --- | --- |
| CC(OCC(F)(F)F)c1noc(N2CCc3nc(NC(=O)N[C@H](C)CO)sc3C2)n1 (stereo partly drawn) [Example 89, N-[(2R)-1-hydroxypropan-2-yl]-N′-(5-{3-[1-(2,2,2-trifluoroethoxy)ethyl]-1,2,4-oxadiazol-5-yl}-4,5,6,7-tetrahydro[1,3]thiazolo[5,4-c]pyridin-2-yl)urea] | 2.9 μm |
| CNC(=O)Nc1nc2c(s1)[C@H]1CN(C(=O)C(C)C)C[C@@H](C2)N1c1nc(-c2ccc(F)cc2)no1 [Example 125, N-[(4R,8R)-10-[3-(4-fluorophenyl)-1,2,4-oxadiazol-5-yl]-6-(2-methylpropanoyl)-4,5,6,7,8,9-hexahydro-4,8-epimino[1,3]thiazolo[5,4-d]azocin-2-yl]-N′-methylurea] | 2.4 μm |
| COc1ccc2oc(N3Cc4sc(NC(=O)NCC(C)(C)O)nc4CC3(C)C)nc2c1 [Example 190, N-(2-hydroxy-2-methylpropyl)-N′-[5-(5-methoxy-1,3-benzoxazol-2-yl)-6,6-dimethyl-4,5,6,7-tetrahydro[1,3]thiazolo[5,4-c]pyridin-2-yl]urea] | 1.7 μm |
| CCNC(=O)Nc1nc2c(s1)C1CN(C(C)=O)CC(C2)N1c1nc(-c2ccc(F)cc2)no1 (stereo not drawn) [Example 136, N-{6-acetyl-10-[3-(4-fluorophenyl)-1,2,4-oxadiazol-5-yl]-4,5,6,7,8,9-hexahydro-4,8-epimino[1,3]thiazolo[5,4-d]azocin-2-yl}-N′-ethylurea] | 0.34 μm |
| CNC(=O)Nc1nc2c(s1)[C@@H]1COC[C@H](C2)N1c1nc2cc(OC)ccc2o1 [Example 48, N-[(4S,8S)-10-(5-methoxy-1,3-benzoxazol-2-yl)-4,7,8,9-tetrahydro-5H-4,8-epiminooxocino[5,4-d][1,3]thiazol-2-yl]-N′-methylurea] | 1.2 μm |
| O=C(Nc1nc2c(s1)[C@@H]1COC[C@H](C2)N1c1cc(-c2ccc(F)cc2)on1)N[C@H]1CC[C@H](O)CC1 [Example 159, N-{(4S,8S)-10-[5-(4-fluorophenyl)-1,2-oxazol-3-yl]-4,7,8,9-tetrahydro-5H-4,8-epiminooxocino[5,4-d][1,3]thiazol-2-yl}-N′-[(1r,4r)-4-hydroxycyclohexyl]urea] | 1.3 μm |
| CNC(=O)Nc1nc2c(s1)CN(c1nc(C(C)OCC(F)(F)F)no1)CC2 (stereo not drawn) [Example 4, N-methyl-N′-(5-{3-[1-(2,2,2-trifluoroethoxy)ethyl]-1,2,4-oxadiazol-5-yl}-4,5,6,7-tetrahydro[1,3]thiazolo[5,4-c]pyridin-2-yl)urea] | 1.2 μm |
| CC(C)NC(=O)Nc1nc2c(s1)[C@@H]1COC[C@H](C2)N1c1nnc(-c2cccc(C(=O)C3CC3)c2)o1 [Example 117, N-[(4S,8S)-10-{5-[3-(cyclopropanecarbonyl)phenyl]-1,3,4-oxadiazol-2-yl}-4,7,8,9-tetrahydro-5H-4,8-epiminooxocino[5,4-d][1,3]thiazol-2-yl]-N′-propan-2-ylurea] | 1 μm |
| CNC(=O)Nc1nc2c(s1)[C@@H]1COC[C@H](C2)N1c1nc2cc(C)ccc2o1 [Example 49, N-methyl-N′-[(4S,8S)-10-(5-methyl-1,3-benzoxazol-2-yl)-4,7,8,9-tetrahydro-5H-4,8-epiminooxocino[5,4-d][1,3]thiazol-2-yl]urea] | 1.5 μm |
| COc1ccc(-c2noc(N3CCc4nc(NC(=O)NC5CCOCC5)sc4C3)n2)cc1 [Example 107, N-{5-[3-(4-methoxyphenyl)-1,2,4-oxadiazol-5-yl]-4,5,6,7-tetrahydro[1,3]thiazolo[5,4-c]pyridin-2-yl}-N′-oxan-4-ylurea] | 2.3 μm |
| [2H]C([2H])([2H])Oc1ccc2oc(N3[C@@H]4COC[C@H]3c3sc(NC(=O)N[C@H](C)CO)nc3C4)nc2c1 [Example 76, N-[(2R)-1-hydroxypropan-2-yl]-N′-[(4S,8S)-10-{5-[(^2H3)methyloxy]-1,3-benzoxazol-2-yl}-4,7,8,9-tetrahydro-5H-4,8-epiminooxocino[5,4-d][1,3]thiazol-2-yl]urea] | 1.3 μm |
| COc1cccc(-c2cnc(N3[C@@H]4COC[C@H]3c3sc(NC(=O)N[C@H]5CC[C@H](O)CC5)nc3C4)o2)n1 [Example 188, N-[(1r,4r)-4-hydroxycyclohexyl]-N′-{(4S,8S)-10-[5-(6-methoxypyridin-2-yl)-1,3-oxazol-2-yl]-4,7,8,9-tetrahydro-5H-4,8-epiminooxocino[5,4-d][1,3]thiazol-2-yl}urea] | 0.4 μm |
| CNC(=O)Nc1nc2c(s1)CN(c1nnc(C(F)(F)F)o1)CC2 [Example 2, N-methyl-N′-{5-[5-(trifluoromethyl)-1,3,4-oxadiazol-2-yl]-4,5,6,7-tetrahydro[1,3]thiazolo[5,4-c]pyridin-2-yl}urea] | 1.6 μm |
| O=C(NCc1ccnc(O)c1)Nc1nc2c(s1)[C@@H]1COC[C@H](C2)N1c1ncc(-c2cccc(OC(F)F)n2)o1 [Example 177, N-[(4S,8S)-10-{5-[6-(difluoromethoxy)pyridin-2-yl]-1,3-oxazol-2-yl}-4,7,8,9-tetrahydro-5H-4,8-epiminooxocino[5,4-d][1,3]thiazol-2-yl]-N′-[(2-hydroxypyridin-4-yl)methyl]urea] | 0.28 μm |
| [2H]C([2H])([2H])Oc1ccc2oc(N3[C@@H]4COC[C@H]3c3sc(NC(=O)N[C@@H]5CCOC5)nc3C4)nc2c1 [Example 77, N-[(4S,8S)-10-{5-[(^2H3)methyloxy]-1,3-benzoxazol-2-yl}-4,7,8,9-tetrahydro-5H-4,8-epiminooxocino[5,4-d][1,3]thiazol-2-yl]-N′-[(3R)-oxolan-3-yl]urea] | 0.79 μm |
| C[C@H](CO)NC(=O)Nc1nc2c(s1)CN(c1nc(C3CCCC(F)(F)C3)no1)CC2 (stereo partly drawn) [Example 87, N-{5-[3-(3,3-difluorocyclohexyl)-1,2,4-oxadiazol-5-yl]-4,5,6,7-tetrahydro[1,3]thiazolo[5,4-c]pyridin-2-yl}-N′-[(2R)-1-hydroxypropan-2-yl]urea] | 2.1 μm |
| CCO[C@H](C)c1nnc(N2CCc3nc(NC(=O)NC)sc3C2)o1 [Example 3, N-(5-{5-[(1R)-1-ethoxyethyl]-1,3,4-oxadiazol-2-yl}-4,5,6,7-tetrahydro[1,3]thiazolo[5,4-c]pyridin-2-yl)-N′-methylurea] | 3.4 μm |
| [2H]C([2H])([2H])Oc1ccc2oc(N3[C@@H]4COC[C@H]3c3sc(NC(=O)NCC(C)(C)O)nc3C4)nc2c1 [Example 60, N-(2-hydroxy-2-methylpropyl)-N′-[(4S,8S)-10-{5-[(^2H3)methyloxy]-1,3-benzoxazol-2-yl}-4,7,8,9-tetrahydro-5H-4,8-epiminooxocino[5,4-d][1,3]thiazol-2-yl]urea] | 1.7 μm |
| CNC(=O)Nc1nc2c(s1)C1CN(C(=O)OC)CC(C2)N1c1nc(C23CCC(F)(CC2)C3)no1 (stereo not drawn) [Example 133, Methyl 10-[3-(4-fluorobicyclo[2.2.1]heptan-1-yl)-1,2,4-oxadiazol-5-yl]-2-[(methylcarbamoyl)amino]-4,7,8,9-tetrahydro-4,8-epimino[1,3]thiazolo[5,4-d]azocin-6(5H)-carboxylate] | 1.4 μm |
| CC(=O)N1CC[C@@H](NC(=O)Nc2nc3c(s2)[C@@H]2COC[C@H](C3)N2c2ncc(-c3cccc(OC(F)F)n3)o2)C1 [Example 182, N-[(3R)-1-acetylpyrrolidin-3-yl]-N′-[(4S,8S)-10-{5-[6-(difluoromethoxy)pyridin-2-yl]-1,3-oxazol-2-yl}-4,7,8,9-tetrahydro-5H-4,8-epiminooxocino[5,4-d][1,3]thiazol-2-yl]urea] | 0.16 μm |
| CNC(=O)Nc1nc2c(s1)C1CN(C(C)=O)CC(C2)N1c1nc(-c2ccc(F)cc2)no1 (stereo not drawn) [Example 19, N-{6-acetyl-10-[3-(4-fluorophenyl)-1,2,4-oxadiazol-5-yl]-4,5,6,7,8,9-hexahydro-4,8-epimino[1,3]thiazolo[5,4-d]azocin-2-yl}-N′-methylurea] | 0.60 μm |
